Data from ChEMBL document CHEMBL2057195, “Design and synthesis of a novel pyrrolidinyl pyrido pyrimidinone derivative as a potent inhibitor of PI3Kα and mTOR” (Bioorg Med Chem Lett, 2012).
Values after ≈ are worked out from the molar mass of the structure shown.

Assays:
physchem = conditions: buffer, pH 6.5
Description: Apparent kinetic solubility of the compound at pH 6.5

[1] = target: Serine/threonine-protein kinase mTOR (Homo sapiens, UniProt P42345)
[2] = target: Phosphatidylinositol 4,5-bisphosphate 3-kinase catalytic subunit alpha isoform (Mus musculus, UniProt P42337)
Description: Inhibition of mouse PI3Kalpha

[3] = Clearance in rat liver microsomes; format: ADME, Microsome; conditions: read-out: CLH
Liver microsomes [4] = test: Drug metabolism in human liver microsomes assessed as CYP450-mediated GSH adduct formation in presence of GSH; format: ADME, Microsome
[5] = Clearance in rat at 2 mg/kg, iv; format: ADME, organism-based; set-up: dose 2 mg/kg, route intravenous; conditions: in vivo
[6] = Oral bioavailability in rat at 5 mg/kg; format: ADME, organism-based; conditions: in vivo
[7] = Half life in rat at 2 mg/kg, iv; format: ADME, organism-based; set-up: dose 2 mg/kg, route intravenous; conditions: in vivo
Liver microsomes [8] = test: Drug metabolism in human liver microsomes assessed as CYP450-mediated GSH adduct formation in absence of GSH; format: ADME, Microsome
[9] = Cmax in rat at 5 mg/kg, po; format: ADME, organism-based; set-up: dose 5 mg/kg, route oral; conditions: in vivo
[10] = Volume of distribution at steady state in rat at 2 mg/kg, iv; format: ADME, organism-based; set-up: dose 2 mg/kg, route intravenous; conditions: in vivo, read-out: Vdss
Liver microsomes [11] = test: Drug metabolism in human liver microsomes assessed as CYP450-mediated 4-(2-amino-4-methyl-7-oxo-6-(1H-pyrazol-4-yl)pyrido[2,3-d]pyrimidin-8(7H)-ylamino)butanoic acid formation; format: ADME, Microsome

Sequence of Phosphatidylinositol 4,5-bisphosphate 3-kinase catalytic subunit alpha isoform (P42337 whole entry, canonical isoform): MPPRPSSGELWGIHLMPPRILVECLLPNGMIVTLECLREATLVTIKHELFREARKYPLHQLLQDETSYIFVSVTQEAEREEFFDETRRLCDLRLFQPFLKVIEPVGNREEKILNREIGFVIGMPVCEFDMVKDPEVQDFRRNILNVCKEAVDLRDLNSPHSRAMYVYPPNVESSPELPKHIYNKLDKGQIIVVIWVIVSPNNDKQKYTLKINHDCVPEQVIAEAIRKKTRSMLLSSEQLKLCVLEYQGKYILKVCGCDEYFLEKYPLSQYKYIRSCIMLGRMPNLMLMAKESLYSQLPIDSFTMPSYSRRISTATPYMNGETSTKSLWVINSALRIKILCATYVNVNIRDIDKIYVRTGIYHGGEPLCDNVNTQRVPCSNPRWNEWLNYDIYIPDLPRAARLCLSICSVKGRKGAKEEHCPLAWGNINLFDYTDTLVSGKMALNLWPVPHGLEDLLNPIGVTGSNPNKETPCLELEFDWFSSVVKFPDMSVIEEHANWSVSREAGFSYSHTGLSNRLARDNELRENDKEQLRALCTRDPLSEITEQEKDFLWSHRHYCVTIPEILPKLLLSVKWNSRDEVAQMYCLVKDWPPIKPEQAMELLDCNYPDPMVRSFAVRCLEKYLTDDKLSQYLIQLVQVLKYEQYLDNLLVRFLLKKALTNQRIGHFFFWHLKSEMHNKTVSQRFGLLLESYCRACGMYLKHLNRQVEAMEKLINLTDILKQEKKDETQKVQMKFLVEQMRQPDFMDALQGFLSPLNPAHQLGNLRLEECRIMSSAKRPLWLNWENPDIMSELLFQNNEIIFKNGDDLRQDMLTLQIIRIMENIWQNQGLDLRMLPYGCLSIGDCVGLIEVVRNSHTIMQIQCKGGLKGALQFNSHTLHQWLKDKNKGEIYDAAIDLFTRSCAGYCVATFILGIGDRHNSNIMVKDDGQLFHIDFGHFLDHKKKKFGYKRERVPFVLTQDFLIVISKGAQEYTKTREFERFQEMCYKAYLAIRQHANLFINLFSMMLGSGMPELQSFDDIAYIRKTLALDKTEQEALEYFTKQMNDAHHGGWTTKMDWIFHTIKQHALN

Row | Structure (SMILES) | solubility kinetic (physchem) [µM] | Ki [1] [nM] | Ki [2] [nM] | further results
1 | COc1ccc(-c2cc3c(C)nc(N)nc3n(C3CCC3)c2=O)cn1 | 11.1 (≈ 3.74 µg/mL) | 76.4 | – | –
2 | Cc1nc(N)nc2c1cc(-c1cn[nH]c1)c(=O)n2C1CCC1 | 13 (≈ 3.85 µg/mL) | 51.2 | 7 | –
3 | Cc1nc(N)nc2c1cc(-c1cn[nH]c1)c(=O)n2C1CC1 | 16.7 (≈ 4.71 µg/mL) | 190 | 36 | –
4 | Cc1nc(N)nc2c1cc(-c1cn[nH]c1)c(=O)n2NCC(C)C | – | – | 827 | –
5 | COc1ccc(-c2cc3c(C)nc(N)nc3n(C3CCCC3)c2=O)cn1 | 3.94 (≈ 1.38 µg/mL) | 142 | 1.56 | –
6 | COc1ccc(-c2cc3c(C)nc(N)nc3n(N3CCCC3)c2=O)cn1 | – | – | 10 | –
7 | CCN(CC)n1c(=O)c(-c2cn[nH]c2)cc2c(C)nc(N)nc21 | 434 (≈ 136 µg/mL) | – | 138 | –
8 | Cc1nc(N)nc2c1cc(-c1cn[nH]c1)c(=O)n2C(C)C | 43.4 (≈ 12.3 µg/mL) | 23.5 | 13.5 | microsomal CLint [3]: 349 µL/min/mg
9 | COc1ccc(-c2cc3c(C)nc(N)nc3n(C3CC3)c2=O)cn1 | 16.2 (≈ 5.24 µg/mL) | – | 26 | –
10 | Cc1nc(N)nc2c1cc(-c1cn[nH]c1)c(=O)n2N1CCCC1 | 43.1 (≈ 13.4 µg/mL) | 10.6 | 12.5 | Drug metabolism (Liver microsomes [4]): Not Active; clearance [5]: 36.3 mL/min/kg; bioavailability [6]: 52%; half-life [7]: 54 min; Drug metabolism (Liver microsomes [8]): Not Active; Cmax [9]: 0.144 ng/mL; Vd [10]: 2.9 L/kg; Drug metabolism (Liver microsomes [11]): Active
